Measurements as given in paper PMC4457528, “Identification of Novel Small Molecule Inhibitors of Oncogenic RET Kinase” (PLoS ONE, 2015).
Like-named read-outs stand apart in the source and are kept apart here.

Legend:
Assay in all cases: KinomeScan kinase panel, single concentration 10 µM
Assay type in all cases: binding
KinomeScan kinase panel [1] = molecular target: T1, KinomeScan kinase panel (Homo sapiens, UniProt O75716); conditions: read-out: score (%)
T1 construct: purchased DiscoveRx (KinomeScan)

KinomeScan kinase panel [2] = molecular target: T2, KinomeScan kinase panel (Homo sapiens, UniProt P00533, L861Q); conditions: EGFR(L861Q), 10 µM
T2 construct: purchased DiscoveRx (KinomeScan)

KinomeScan kinase panel [3] = molecular target: T3, KinomeScan kinase panel (Homo sapiens, UniProt P53355); conditions: DAPK1, 10 µM; read-out: score (%)
T3 construct: purchased DiscoveRx (KinomeScan)

KinomeScan kinase panel [4] = molecular target: T4, KinomeScan kinase panel (Homo sapiens, UniProt Q04771); conditions: ACVR1, 10 µM; read-out: score (%)
T4 construct: purchased DiscoveRx (KinomeScan)
T4 sequence (Q04771 21-509): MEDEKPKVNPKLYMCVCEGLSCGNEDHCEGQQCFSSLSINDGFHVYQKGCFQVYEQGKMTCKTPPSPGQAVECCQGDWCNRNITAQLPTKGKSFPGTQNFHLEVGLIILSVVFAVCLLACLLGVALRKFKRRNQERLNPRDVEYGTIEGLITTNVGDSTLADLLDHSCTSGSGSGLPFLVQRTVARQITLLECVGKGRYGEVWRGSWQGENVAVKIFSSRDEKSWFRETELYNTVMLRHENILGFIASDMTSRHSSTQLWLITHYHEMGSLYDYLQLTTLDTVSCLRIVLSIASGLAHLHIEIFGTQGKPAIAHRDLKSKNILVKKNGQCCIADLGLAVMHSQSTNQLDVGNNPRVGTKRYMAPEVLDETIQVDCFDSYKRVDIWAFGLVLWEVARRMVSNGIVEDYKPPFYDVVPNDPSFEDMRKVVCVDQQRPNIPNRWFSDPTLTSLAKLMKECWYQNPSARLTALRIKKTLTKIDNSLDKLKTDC

KinomeScan kinase panel [5] = molecular target: T5, KinomeScan kinase panel (Homo sapiens, UniProt Q15759); conditions: p38-beta, 10 µM; read-out: score (%)
T5 construct: purchased DiscoveRx (KinomeScan)

KinomeScan kinase panel [6] = molecular target: T6, KinomeScan kinase panel (Homo sapiens, UniProt Q8TD08); conditions: ERK8, 10 µM; read-out: score (%)
T6 construct: purchased DiscoveRx (KinomeScan)
T6 sequence (Q8TD08 1-544): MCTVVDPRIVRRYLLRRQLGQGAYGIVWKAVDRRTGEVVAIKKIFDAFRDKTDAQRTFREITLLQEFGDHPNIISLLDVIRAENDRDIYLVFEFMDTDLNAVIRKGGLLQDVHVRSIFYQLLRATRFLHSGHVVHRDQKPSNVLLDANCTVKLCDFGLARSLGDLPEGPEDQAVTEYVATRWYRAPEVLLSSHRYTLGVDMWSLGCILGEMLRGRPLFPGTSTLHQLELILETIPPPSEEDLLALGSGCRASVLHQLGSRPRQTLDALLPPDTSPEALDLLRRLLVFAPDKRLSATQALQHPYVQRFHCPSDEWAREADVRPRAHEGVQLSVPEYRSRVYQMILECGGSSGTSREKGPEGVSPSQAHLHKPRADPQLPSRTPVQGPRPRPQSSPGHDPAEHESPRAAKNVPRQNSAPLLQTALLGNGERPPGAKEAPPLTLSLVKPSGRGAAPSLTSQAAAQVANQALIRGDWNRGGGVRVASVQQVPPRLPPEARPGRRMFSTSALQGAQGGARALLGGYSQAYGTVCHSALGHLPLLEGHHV

KinomeScan kinase panel [7] = molecular target: T7, KinomeScan kinase panel (Homo sapiens, UniProt Q8WXR4); conditions: MYO3B, 10 µM; read-out: score (%)
T7 construct: purchased DiscoveRx (KinomeScan)
T7 sequence (Q8WXR4 1-1341): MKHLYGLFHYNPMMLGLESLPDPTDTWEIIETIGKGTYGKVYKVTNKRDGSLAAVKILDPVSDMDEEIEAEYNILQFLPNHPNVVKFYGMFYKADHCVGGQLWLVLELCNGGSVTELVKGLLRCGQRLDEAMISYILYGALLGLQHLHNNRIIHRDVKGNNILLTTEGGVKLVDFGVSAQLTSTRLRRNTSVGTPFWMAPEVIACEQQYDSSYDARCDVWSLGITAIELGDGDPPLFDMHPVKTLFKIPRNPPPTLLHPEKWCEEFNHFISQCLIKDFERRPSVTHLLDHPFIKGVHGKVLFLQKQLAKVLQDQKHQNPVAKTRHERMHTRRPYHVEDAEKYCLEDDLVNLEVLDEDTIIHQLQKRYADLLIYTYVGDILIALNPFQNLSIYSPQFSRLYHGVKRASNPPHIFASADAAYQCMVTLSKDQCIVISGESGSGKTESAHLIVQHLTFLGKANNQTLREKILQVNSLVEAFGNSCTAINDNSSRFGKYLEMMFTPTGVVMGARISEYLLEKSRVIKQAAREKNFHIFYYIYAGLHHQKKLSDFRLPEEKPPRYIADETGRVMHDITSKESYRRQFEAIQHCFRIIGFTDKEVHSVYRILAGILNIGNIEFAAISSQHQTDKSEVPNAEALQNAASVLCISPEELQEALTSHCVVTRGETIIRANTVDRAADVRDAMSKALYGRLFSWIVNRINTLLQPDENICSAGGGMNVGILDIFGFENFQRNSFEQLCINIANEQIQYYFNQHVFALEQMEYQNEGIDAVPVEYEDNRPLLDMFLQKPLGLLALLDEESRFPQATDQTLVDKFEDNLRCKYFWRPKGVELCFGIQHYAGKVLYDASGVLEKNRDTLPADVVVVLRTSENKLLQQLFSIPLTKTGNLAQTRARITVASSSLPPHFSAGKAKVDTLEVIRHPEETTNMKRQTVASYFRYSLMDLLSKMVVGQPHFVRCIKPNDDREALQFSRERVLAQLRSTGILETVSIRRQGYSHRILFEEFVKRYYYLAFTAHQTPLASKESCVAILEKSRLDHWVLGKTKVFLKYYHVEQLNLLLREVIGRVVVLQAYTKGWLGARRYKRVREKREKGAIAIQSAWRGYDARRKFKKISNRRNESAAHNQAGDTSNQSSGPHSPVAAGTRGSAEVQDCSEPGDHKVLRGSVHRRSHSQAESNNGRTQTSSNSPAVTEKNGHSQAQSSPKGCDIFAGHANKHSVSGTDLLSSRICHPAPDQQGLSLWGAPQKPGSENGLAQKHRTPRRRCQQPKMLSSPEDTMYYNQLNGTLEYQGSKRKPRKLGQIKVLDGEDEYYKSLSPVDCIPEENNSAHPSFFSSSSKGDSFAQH

KinomeScan kinase panel [8] = molecular target: T8, KinomeScan kinase panel (Homo sapiens, UniProt Q9NQU5); conditions: PAK6, 10 µM; read-out: score (%)
T8 construct: purchased DiscoveRx (KinomeScan)

KinomeScan kinase panel [9] = molecular target: T9, KinomeScan kinase panel (Homo sapiens, UniProt Q9P286); conditions: read-out: score (%)
T9 construct: purchased DiscoveRx (KinomeScan)

KinomeScan kinase panel [10] = molecular target: T10, KinomeScan kinase panel (Homo sapiens, UniProt Q9Y4K4); conditions: MAP4K5, 10 µM; read-out: score (%)
T10 construct: purchased DiscoveRx (KinomeScan)
T10 sequence (Q9Y4K4 whole entry): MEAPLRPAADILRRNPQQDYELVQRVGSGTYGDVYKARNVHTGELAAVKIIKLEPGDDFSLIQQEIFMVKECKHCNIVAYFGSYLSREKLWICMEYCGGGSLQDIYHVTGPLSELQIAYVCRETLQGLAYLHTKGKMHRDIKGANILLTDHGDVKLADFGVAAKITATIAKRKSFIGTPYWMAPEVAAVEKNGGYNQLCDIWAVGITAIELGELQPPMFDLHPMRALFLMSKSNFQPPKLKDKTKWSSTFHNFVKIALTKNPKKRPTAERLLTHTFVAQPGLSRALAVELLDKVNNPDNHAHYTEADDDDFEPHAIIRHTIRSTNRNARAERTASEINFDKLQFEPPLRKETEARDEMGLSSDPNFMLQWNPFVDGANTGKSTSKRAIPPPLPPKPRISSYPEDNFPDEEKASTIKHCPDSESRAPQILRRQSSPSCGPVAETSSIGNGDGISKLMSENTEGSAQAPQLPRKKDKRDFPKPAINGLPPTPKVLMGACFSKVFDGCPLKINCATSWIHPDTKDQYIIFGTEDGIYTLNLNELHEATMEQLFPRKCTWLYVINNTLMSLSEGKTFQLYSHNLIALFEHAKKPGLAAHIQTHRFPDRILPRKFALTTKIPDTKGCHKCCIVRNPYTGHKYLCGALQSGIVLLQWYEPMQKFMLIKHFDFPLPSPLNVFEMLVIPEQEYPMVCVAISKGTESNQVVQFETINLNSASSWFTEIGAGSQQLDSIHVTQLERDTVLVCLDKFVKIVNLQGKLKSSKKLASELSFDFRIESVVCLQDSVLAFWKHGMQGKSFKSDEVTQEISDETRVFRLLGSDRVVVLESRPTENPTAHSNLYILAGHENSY

T8 sequence (Q9NQU5 whole entry): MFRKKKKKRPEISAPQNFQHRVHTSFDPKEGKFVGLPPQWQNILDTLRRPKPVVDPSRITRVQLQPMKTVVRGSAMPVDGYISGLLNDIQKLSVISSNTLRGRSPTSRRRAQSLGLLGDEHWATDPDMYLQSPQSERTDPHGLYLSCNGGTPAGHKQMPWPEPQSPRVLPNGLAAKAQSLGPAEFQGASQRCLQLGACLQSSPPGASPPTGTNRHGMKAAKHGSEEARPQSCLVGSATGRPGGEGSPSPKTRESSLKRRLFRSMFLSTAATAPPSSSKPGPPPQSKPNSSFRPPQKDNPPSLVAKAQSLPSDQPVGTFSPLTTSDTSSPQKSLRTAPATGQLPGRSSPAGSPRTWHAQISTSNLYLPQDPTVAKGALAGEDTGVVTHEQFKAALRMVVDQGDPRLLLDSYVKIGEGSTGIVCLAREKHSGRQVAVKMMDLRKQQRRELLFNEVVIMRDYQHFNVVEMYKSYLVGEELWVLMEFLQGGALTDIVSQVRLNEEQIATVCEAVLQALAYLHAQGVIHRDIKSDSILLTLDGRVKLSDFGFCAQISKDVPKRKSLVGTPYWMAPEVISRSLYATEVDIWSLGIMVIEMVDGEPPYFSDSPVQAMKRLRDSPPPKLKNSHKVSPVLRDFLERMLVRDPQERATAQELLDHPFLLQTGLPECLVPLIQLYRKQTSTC
T9 sequence (Q9P286 whole entry): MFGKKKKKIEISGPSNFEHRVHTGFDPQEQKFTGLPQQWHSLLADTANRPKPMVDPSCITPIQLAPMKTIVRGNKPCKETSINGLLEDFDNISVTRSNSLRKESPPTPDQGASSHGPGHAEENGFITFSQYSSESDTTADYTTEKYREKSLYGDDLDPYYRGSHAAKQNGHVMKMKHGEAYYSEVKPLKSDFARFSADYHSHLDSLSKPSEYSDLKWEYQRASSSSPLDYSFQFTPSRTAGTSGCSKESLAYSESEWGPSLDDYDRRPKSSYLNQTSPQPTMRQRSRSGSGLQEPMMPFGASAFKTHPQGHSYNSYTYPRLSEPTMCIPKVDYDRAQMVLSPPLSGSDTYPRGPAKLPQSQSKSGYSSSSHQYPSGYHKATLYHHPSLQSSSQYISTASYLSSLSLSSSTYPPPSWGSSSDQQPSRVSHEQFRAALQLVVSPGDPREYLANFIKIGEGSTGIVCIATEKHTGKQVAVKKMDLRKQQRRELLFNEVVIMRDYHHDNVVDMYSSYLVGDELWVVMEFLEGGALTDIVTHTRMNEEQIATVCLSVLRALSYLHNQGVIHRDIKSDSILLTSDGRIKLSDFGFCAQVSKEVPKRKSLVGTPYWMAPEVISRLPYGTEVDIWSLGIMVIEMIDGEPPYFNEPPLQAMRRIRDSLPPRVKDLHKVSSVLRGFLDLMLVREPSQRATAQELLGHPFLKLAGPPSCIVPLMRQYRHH
T5 sequence (Q15759 whole entry): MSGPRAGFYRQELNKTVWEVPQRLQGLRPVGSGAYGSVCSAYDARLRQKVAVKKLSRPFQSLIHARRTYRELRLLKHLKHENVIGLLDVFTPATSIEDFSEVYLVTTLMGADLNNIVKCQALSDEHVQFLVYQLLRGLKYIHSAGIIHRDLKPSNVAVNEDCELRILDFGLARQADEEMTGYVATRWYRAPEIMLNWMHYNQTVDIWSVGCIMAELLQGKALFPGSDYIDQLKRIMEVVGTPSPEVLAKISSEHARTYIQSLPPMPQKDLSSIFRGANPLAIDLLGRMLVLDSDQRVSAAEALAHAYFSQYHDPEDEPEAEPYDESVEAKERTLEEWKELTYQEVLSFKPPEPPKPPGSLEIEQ
T2 sequence (P00533 25-1210 L861Q): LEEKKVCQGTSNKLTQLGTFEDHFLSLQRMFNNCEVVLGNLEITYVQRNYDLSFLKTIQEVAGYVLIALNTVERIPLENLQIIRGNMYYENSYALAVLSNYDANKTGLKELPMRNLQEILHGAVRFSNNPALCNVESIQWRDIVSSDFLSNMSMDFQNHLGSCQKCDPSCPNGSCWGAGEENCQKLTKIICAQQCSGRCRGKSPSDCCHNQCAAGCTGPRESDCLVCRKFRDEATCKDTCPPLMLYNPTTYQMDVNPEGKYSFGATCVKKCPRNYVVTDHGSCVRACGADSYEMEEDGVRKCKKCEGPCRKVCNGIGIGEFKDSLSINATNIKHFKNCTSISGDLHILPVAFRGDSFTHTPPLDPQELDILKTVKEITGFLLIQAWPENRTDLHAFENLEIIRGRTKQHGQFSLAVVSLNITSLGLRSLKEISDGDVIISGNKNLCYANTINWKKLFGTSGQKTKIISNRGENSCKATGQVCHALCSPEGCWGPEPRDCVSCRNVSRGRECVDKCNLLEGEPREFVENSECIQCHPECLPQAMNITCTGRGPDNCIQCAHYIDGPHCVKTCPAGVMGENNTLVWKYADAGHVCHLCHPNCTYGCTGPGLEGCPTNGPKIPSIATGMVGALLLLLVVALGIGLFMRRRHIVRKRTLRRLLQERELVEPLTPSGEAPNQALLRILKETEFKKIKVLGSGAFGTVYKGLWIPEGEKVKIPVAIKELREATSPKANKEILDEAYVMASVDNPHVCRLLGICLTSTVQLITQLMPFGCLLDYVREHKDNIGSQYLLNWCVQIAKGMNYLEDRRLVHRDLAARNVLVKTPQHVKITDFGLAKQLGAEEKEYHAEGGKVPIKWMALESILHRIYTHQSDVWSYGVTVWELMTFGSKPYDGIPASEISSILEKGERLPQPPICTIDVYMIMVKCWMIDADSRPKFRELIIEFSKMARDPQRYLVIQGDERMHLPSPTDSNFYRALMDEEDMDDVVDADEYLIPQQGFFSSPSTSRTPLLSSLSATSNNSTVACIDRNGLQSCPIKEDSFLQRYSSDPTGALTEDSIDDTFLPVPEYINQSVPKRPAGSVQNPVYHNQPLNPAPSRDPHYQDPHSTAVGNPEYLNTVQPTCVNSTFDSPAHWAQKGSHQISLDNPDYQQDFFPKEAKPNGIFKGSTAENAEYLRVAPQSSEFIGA
T1 sequence (O75716 whole entry): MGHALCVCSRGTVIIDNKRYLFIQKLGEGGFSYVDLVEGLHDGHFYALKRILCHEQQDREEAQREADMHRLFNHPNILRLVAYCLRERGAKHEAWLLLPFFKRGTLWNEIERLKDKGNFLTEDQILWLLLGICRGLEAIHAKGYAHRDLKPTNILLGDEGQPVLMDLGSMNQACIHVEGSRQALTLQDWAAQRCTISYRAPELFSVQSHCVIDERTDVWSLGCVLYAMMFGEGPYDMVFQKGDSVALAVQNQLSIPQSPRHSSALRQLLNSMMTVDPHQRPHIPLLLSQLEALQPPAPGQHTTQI

remaining binding at 10 µM (KinomeScan kinase panel [1]; STK16, 10 µM) [%] | remaining binding at 10 µM (KinomeScan kinase panel [9]; PAK7/PAK5, 10 µM) [%] | SMILES | remaining binding at 10 µM (KinomeScan kinase panel [1]; kinase STK16, 10 µM) [%] | score (%) (KinomeScan kinase panel [2]) | remaining binding at 10 µM (KinomeScan kinase panel [3]) [%] | remaining binding at 10 µM (KinomeScan kinase panel [4]) [%] | remaining binding at 10 µM (KinomeScan kinase panel [5]) [%] | remaining binding at 10 µM (KinomeScan kinase panel [6]) [%] | remaining binding at 10 µM (KinomeScan kinase panel [7]) [%] | remaining binding at 10 µM (KinomeScan kinase panel [8]) [%] | remaining binding at 10 µM (KinomeScan kinase panel [9]; PAK7, 10 µM) [%] | remaining binding at 10 µM (KinomeScan kinase panel [10]) [%]
 |  | CCN1CCN(Cc2ccc(NC(=O)c3ccc(C)c(NC(=O)c4cncc(-c5cccs5)c4)c3)cc2C(F)(F)F)CC1 [ALW-II-41-27] | > 30 | 0 | > 30 | > 30 | 0 | > 30 | > 30 | > 30 | > 30 | 0.75
18 | > 30 | CCN1CCN(Cc2ccc(NC(=O)c3ccc(C)c(/C=C/c4cnc5[nH]ccc5c4Cl)c3)cc2C(F)(F)F)CC1 [HG-6-63-01, (E)-3-(2-(4-chloro-1H-pyrrolo[2,3-b]pyridin-5-yl)vinyl)-N-(4-((4-ethylpiperazin-1-yl)methyl)-3-(trifluoromethyl)phenyl)-4-methylbenzamide] |  | 0 | > 30 | > 30 | 0 | > 30 | 30 | > 30 |  | 1.8
 |  | CCN1CCN(Cc2ccc(NC(=O)c3ccc(C)c(C#Cc4cccnc4)c3)cc2C(F)(F)F)CC1 [XMD15-44] | 100 | 0.2 | > 30 | > 30 | 0 | 1.8 | 0 | 100 | 83 | 3
